From ChEMBL document CHEMBL5360671, “Targeting KRASG12D Mutations: Discovery of Small Molecule Inhibitors for the Potential Treatment of Intractable Cancers” (ACS Med Chem Lett, 2023) come the findings set out here.

Data set [1] is described as follows: Drug absorption in Balb/c mouse assessed as fraction of drug absorbed into portal vein at 1 mg/kg, […] measured for 24 hrs by UPLC-MS/MS analysis. As to conditions: in vivo. It is filed as ADME, organism-based.
A short description of data set [2]: Oral bioavailability in Balb/c mouse at 30 mg/kg measured for 24 hrs by UPLC-MS/MS analysis. Type of data set: ADME, organism-based. As to conditions: in vivo.
For data set [3], the target named is Mitogen-activated protein kinase; ERK1/ERK2 (Homo sapiens, UniProt P27361+P28482). The data set is described as follows: Inhibition of ERK1/2 phosphorylation in human PANC-1 cells incubated for 3 hrs. It is filed as cell-based.

Regarding `C#Cc1c(F)ccc2cccc(-c3nc4c5c(nc(OC[C@@]67CCCN6C[C@H](F)C7)nc5c3F)N3C[C@H]5CC[C@H](N5)[C@H]3CO4)c12`, the FaFg in data set [1] is on record as 54%. The same molecule gave a bioavailability in data set [2] of 37.7%. Further, the IC50 in data set [3] came to 2 nM.

In turn, `Oc1cc(Cl)c(C2CC2)c(-c2nc3c4c(nc(OC[C@@]56CCCN5C[C@H](F)C6)nc4c2F)N2CC4CCC(N4)C2CO3)c1` (some centres undefined) returned an IC50 in data set [3] of 7 nM.

As for `Oc1cc(-c2nc3c4c(nc(OC[C@@]56CCCN5C[C@H](F)C6)nc4c2F)N2C[C@H]4CC[C@H](N4)[C@H]2CO3)c2c(Cl)cccc2c1`, the IC50 in data set [3] turned out to be 5 nM.

Consider `Oc1cc(-c2nc3c4c(nc(OC[C@@]56CCCN5C[C@H](F)C6)nc4c2F)N2CC4CCC(N4)C2CO3)c2c(Cl)cccc2c1` (some centres undefined), for which the IC50 in data set [3] was determined as 33 nM. As for `C#Cc1cccc2cccc(-c3nc4c5c(nc(OC[C@@]67CCCN6C[C@H](F)C7)nc5c3F)N3C[C@H]5CC[C@H](N5)[C@H]3CO4)c12`, the FaFg in data set [1] was 56.6%. The molecule also showed a bioavailability in data set [2] of 39.2%. Besides, in data set [3], the IC50 is reported as 10 nM.

On to `C#Cc1c(F)ccc2cccc(-c3nc4c5c(nc(OC[C@@]67CCCN6C[C@H](F)C7)nc5c3F)N3CC5CCC(N5)C3CO4)c12` (some centres undefined), for which the IC50 in data set [3] was determined as 9 nM.

Molecule `CCc1c(F)ccc2cc(O)cc(-c3nc4c5c(nc(OC[C@@]67CCCN6C[C@H](F)C7)nc5c3F)N3C[C@H]5CC[C@H](N5)[C@H]3CO4)c12` displayed an IC50 in data set [3] of 0.76 nM.

As to `C#Cc1c(F)ccc2cc(O)cc(-c3ncc4c(N5C[C@H]6CC[C@@H](C5)N6)nc(OC[C@@]56CCCN5C[C@H](F)C6)nc4c3F)c12` [MRTX-1133], the FaFg in data set [1] amounted to 0.95%. Besides, the bioavailability in data set [2] worked out at 0.66%. For the same molecule, the IC50 in data set [3] worked out at 2.3 nM.
